From patent US10889628B2, “Optogenetic inhibition of overactive neuronal activity” (Emory University, priority 2013, dated 2021)

Tests used:
[1] = tested on: neuron; test: Inhibition of evoked spikes in a neuron expressing eNpHR3.0-Nanolantern; format: cell-based; details: CTZ added
[2] = tested on: cortical neuron cultures; test: Inhibition of evoked activity (action potential trains evoked by current injection) in cortical neuron cultures; format: cell-based; details: FIG. 5
Protocol: Trains of action potentials were evoked by 30 pA current injections.
Simultaneous patch clamp studies are conducted to determine cellular responses in (1) cells expressing both opsin and luciferase (i.e. both components in cis) and (2) cells expressing […] (i.e. both components in trans). As an alternative to co-infection, one can also deliver luciferase and inhibitory opsin together as a fusion protein. Various molecular strategies can also be employed (such as adding dimerizing or transmembrane domains) to facilitate co-localization of the luciferase and inhibitory opsin to the cell membrane.

| Compound | luminescence signal during inhibition of evoked activity ([1]; FIG. 8 (top)) | evoked action potentials after CTZ ([1]; sub-threshold depolarizing current injection, FIG. 8) | effect on firing rate in control (uninfected) neurons [2] |
| --- | --- | --- | --- |
| eNpHR3.0-Nanolantern: Fusion cassette of enhanced halorhodopsin eNpHR3.0 and Nanolantern, amino acid sequence SEQ ID NO: 11 | increase in luminescence signal | completely attenuate evoked action potentials | – |
| Oc1ccc(Cc2nc3c(Cc4ccccc4)nc(-c4ccc(O)cc4)cn3c2O)cc1 [CTZ, Coelenterazine, reference compound] | – | – | did not have any significant effect |
